Experiment: Total Oxyradical Scavenging Capacity (TOSC) Assay; synergy by CalcuSyn median-effect analysis
Assay type: biochemical
Conditions: TOSC antioxidant capacity; pure compounds, astaxanthin alone or combined at the stated ratio
Description: Cm is determined from the x-intercept of the median-effect plot. The fraction affected by the concentration of the test material is fa and the fraction unaffected by the concentration is fu (fu=1−fa). The exponent m is the parameter signifying the sigmoidicity or shape of the dose-effect curve. It is estimated by the slope of the median-effect plot. […] The goodness of fit for the data to the median-effect equation is represented by the linear correlation coefficient r of the median-effect plot. […] Synergy of test components is quantified using the combination index (CI) parameter. […] The equation determines only the additive effect rather than synergism or antagonism.

CC1=C(/C=C/C(C)=C/C=C/C(C)=C/C=C/C=C(C)/C=C/C=C(C)/C=C/C2=C(C)C(=O)[C@@H](O)CC2(C)C)C(C)(C)C[C@H](O)C1=O [astaxanthin, 3, 3′-dihydroxy-β,β-carotene-4, 4′-dieto-β-carotene]
EC50: 642 µM
